Here are results for 1 compound from patent US20260108547A1, “LEVERAGING L-FUCOSE-MEDIATED SIGNALING TO INDUCE MONOCYTE-DERIVED DENDRITIC CELL POLARIZATION” (H. LEE MOFFITT CANCER CENTER AND RESEARCH INSTITUTE, INC., priority 2022, published 2026).

For experiment [1], the system named is SW1 tumors. The experiment can be described thus: Flow cytometric profiling of tumors and lymph nodes, SW1 tumors in C3H/HeN mice fed ± L-fucose and treated ± FTY720 (Table 1). The format is in vivo, mouse. Particulars: for average # of CD8 stem central memory cells: tumors. As to the method: Tumors of SW1 or SM1 melanoma cells from […] or C57BL/6 mice, respectively) were digested using 1× tumor digest buffer (0.5 mg/mL Collagenase I, 0.5 mg/mL Collagenase IV, 0.25 mg/mL Hyalyronidase V, 0.1 mg/mL DNAse I in HBSS (Millipore Sigma (St. Louis, MO)). Tumors were homogenized using the Miltenyi MACs dissociator. Red blood cells were lysed using ACK lysis buffer (Life Technologies, (Grand Island, NY)). Tumor homogenate cells were counted using a standard hemocytometer.
Total TILs were gated first to single cells (based on forward scatter height vs width, followed by side scatter height vs. width). Live cells were gated from the Zombie negative population from the population above. TILs were gated based on splenocyte size from a control spleen. Individual immune subpopulations were sub-gated from the total TIL population using the following staining criteria: CD3^+ for CD3^+ T cells; CD3^+/CD4^+/CD8^− for CD4^+T cells; CD3^+/CD4^−/CD8^+ for CD8^+ T cells, CD11c^+/CD11b^+ for DCs; either NK1.1 (for C57/BL6 mice) or DX5 (for C3H/HeJ) for NK cells; CD11b^+/GR1^+ for MDSC-like cells; and F4/80^+ for macrophages. Single-cell suspensions from tumor and spleen tissue were stained with Live/Dead Zombie NIR (Biolegend, (San Diego, CA)) at 1:1,000 in PBS for 20 min. Cell suspensions were spun down and stained with the following with antibodies at 0.5 μg/ml per antibody: APC anti-mouse CD3, Pacific Blue anti-mouse CD4, BV785 anti-mouse CD8, PerCP anti-mouse CD25, FITC anti-mouse F4/80, PeCy7 anti-mouse CD11c, PE anti-mouse NK1.1 or PE anti-mouse DX5, and PerCP-Cy5.5 anti-mouse CD11b. After staining, the cells were washed and fixed (2% formaldehyde), followed by another wash and flow cytometric analysis. The compensation controls were prepared using 0.5 μg/mL of each antibody with UltraComp eBeads, (ThermoFisher Scientific (Waltham, MA)). All samples were subject to flow cytometric profiling using a LSR Flow Cytometer (BD Biosciences (San Jose, CA)) and analysis as indicated using FlowJo software (BD Biosciences (San Jose, CA)).
For all mouse models, 1×10^6 melanoma cells were injected subcutaneously in the right hind flanks of each mouse. […] This dosage is within ranges for dietary supplementation with L-fucose and other similar dietary sugars (e.g., D-mannose) in other rodent studies. When the tumors reached −2 cm^3, the animals were sacrificed, and the tumors either processed for flow cytometric profiling or for histological analysis as indicated.
Control vs. L-fucose±FTY720 models (FIG. 2): SW1 or SM1 mouse melanoma cells were injected into syngeneic C3H/HeN (or NSG) female or C57BL/6 male mice, respectively. Cells were injected as follows: parental SW1 cells for FIG. 1A; parental SM1 cells for FIG. 1E; SW1 cells stably expressing either empty vector (EV) or mouse fucose kinase (mFuk) for FIG. 1L; and parental SW1 cells for FIG. 1M. FTY720 was administered at 20 μg every 2 days starting on Day 12, just prior to the initiation of LF, until endpoint.

For experiment [2], the system named is human PBMC-derived CD4+T cells. The experiment can be described thus: Phosphoproteomic and fucosylated proteomic analyses of CD3/CD28-activated CD4+T cells. The format is cell-based. Particulars: 250 μM L-fucose. As to the method:
CD4^+T cells cultured and treated as indicated in the main text were harvested and lysed in standard RIPA buffer+protease and phosphatase inhibitors. Protein concentration was estimated by BCA assay (Bio-Rad) and 1 mg lysates were subjected to trypsin digestion. Briefly, lysates were reduced with 4.5 mM dithiothreitol (DTT) for 30 min at 60° C., alkylated with 10 mM iodoacetamide (IAA) at room temperature in the dark for 20 minutes, and digested overnight at 37° C. with 1:20 enzyme-to-protein ratio of trypsin (Worthington). The resulting peptide solution was de-salted using reversed-phase Sep-Pak C18 cartridge (Waters) and lyophilized for 48 hours.
The lyophilized peptides were enriched for global phosphopeptides (pSTY) using IMAC Fe-NTA magnetic beads (Cell Signaling Technology, #20432). Enrichment were carried out on a KingFisher™ Flex Purification System (Thermo Fisher, #24074441). […]
On-bead digestion was performed with trypsin and tryptic peptides were then analyzed using a nanoflow ultra-high-performance liquid chromatograph (RSLC, Dionex, Sunnyvale, CA) coupled to an electrospray orbitrap mass spectrometer (Q-Exactive Plus, Thermo, San Jose, CA) for tandem mass spectrometry peptide sequencing. […] MaxQuant software (version 1.6.2.10) was used to identify and quantify the proteins for the DDA runs. […]

For `C[C@H](O)[C@@H](O)[C@@H](O)[C@H](O)C=O` [L-fucose], the “average # of CD8 stem central memory cells” value in experiment [1] (Day 28) and in experiment [1] (Day 42) was 0.00 per 10^6 cells each time. Further, the “intratumoral CD4+T central and effector memory subpopulations” value in experiment [1] (SW1 model ± FTY720) is “increases”. The “cytotoxic CD4+T cells” value in experiment [1] (midpoint (Day 28)) was “transiently but significantly increased”. The “intratumoral monocyte-derived DCs (moDCs) and lymph node cDC2s” value in experiment [1] (oral L-fuc, SW1 model) is “significant, albeit transient, increases”. For the same compound, the “Protein Kinase A (PKA) and actin signaling in CD4+T cells” value in experiment [2] is given as “significantly altering”.
